Test results as given in patent US20170239323A1, “ORITAVANCIN FORMULATIONS” (The Medicines Company, priority 2016, published 2017).

Test: pH adjustment of oritavancin/HPCD solution with 1N NaOH: visual observations
Format: physicochemical
Description: Reconstituting Orbactiv 400 mg (Oritavancin) in 20% w/v HPCD, diluting in saline then adjusting pH. The 50 mg/mL solution of oritavancin in 20% w/v HPCD (described in Table 3) was further diluted in 0.9% saline to 6 mg/mL in a small glass vial. The pH was adjusted using 1N NaOH. NaOH was added to the oritavancin solution in […] and vortexed. Visual observations and pH were recorded (Table 5).
Reconstituting Orbactiv 400 mg (Oritavancin) in 50% w/v HPCD aqueous solution, adjusting pH then diluting in saline. 6.269 g of HPCD was dissolved in 12.538 mL of water to make a 50% w/v solution (pH=7.23). Seven (7) mL of the 50% w/v solution was added to a 400 mg vial of Orbactiv for a target oritavancin concentration of 57.14 mg/mL. […] A 2 mL aliquot of 57.14 mg/mL was removed from the vial and placed in a small glass vial. The pH was adjusted to 6.5 using 1N NaOH. NaOH was added to the oritavancin solution in 5 μL increments and vortexed. Visual observations and pH were recorded (Table 6).
(§1) Reconstituting Orbactiv 400 mg (Oritavancin) in 50% w/v aqueous HPCD, adjusting pH then diluting in saline. 6.112 g of HPCD was dissolved in 12.224 mL of water to make a 50% w/v solution (pH=6.74). Seven (7) mL of the 50% w/v HPCD solution was added to a 400 mg vial of Orbactiv for a target oritavancin concentration of 57.14 mg/mL. […] A 3 mL aliquot of 57.14 mg/mL was removed from the vial and placed in a small glass vial. The pH was adjusted to 7 using 1N NaOH. NaOH was added to the oritavancin solution in 5 μL increments and vortexed. Visual observations and pH were recorded (Table 8).
as §1, with “20%” for “50%”, “3.555” for “6.112”, “17.775” for “12.224”, “(pH=6.88).” for “(pH=6.74).”, “recorded.” for “recorded”, “10).” for “8).”

For `CN[C@H](CC(C)C)C(=O)N[C@H]1C(=O)N[C@@H](CC(N)=O)C(=O)N[C@H]2C(=O)N[C@H]3C(=O)N[C@H](C(=O)N[C@H](C(=O)O)c4cc(O)cc(O)c4-c4cc3ccc4O)[C@H](O[C@H]3C[C@](C)(N)[C@@H](O)[C@H](C)O3)c3ccc(c(Cl)c3)Oc3cc2cc(c3O[C@@H]2O[C@H](CO)[C@@H](O)[C@H](O)[C@H]2O[C@H]2C[C@](C)(NCc3ccc(-c4ccc(Cl)cc4)cc3)[C@@H](O)[C@H](C)O2)Oc2ccc(cc2Cl)[C@H]1O` [Oritavancin], which Observations (20% w/v HPCD reconstitution diluted in 0.9% saline, 1N NaOH 0 μL, pH 4.10, oritavancin 6.00 mg/mL) is on record?
The Observations was “Clear, colorless solution”.

And the Observations (20% w/v HPCD reconstitution diluted in 0.9% saline, 1N NaOH 5 μL, pH 5.33, oritavancin 5.99 mg/mL)?
Its Observations is “Clear, colorless solution”.

What about the Observations (20% w/v HPCD reconstitution diluted in 0.9% saline, 1N NaOH 10 μL, pH 6.05, oritavancin 5.97 mg/mL) of the same compound?
The Observations was “Clear, colorless solution”.

And the “pH at which adjusting with 1N NaOH caused visible precipitation” value (20% w/v HPCD reconstitution diluted to 6 mg/mL in 0.9% saline)?
The value was > 6.

And the Observations (50% w/v HPCD reconstitution (2 mL aliquot), 1N NaOH 0 μL, pH 4.08, oritavancin 57.14 mg/mL)?
Its Observations is “Clear, colorless solution”.

And the Observations (50% w/v HPCD reconstitution (2 mL aliquot), 1N NaOH 5 μL, pH 4.26, oritavancin 57.10 mg/mL)?
Its Observations is “Clear, colorless solution”.

What about the Observations (50% w/v HPCD reconstitution (2 mL aliquot), 1N NaOH 10 μL, pH 4.56, oritavancin 57.06 mg/mL) of the same compound?
The Observations was “Clear, colorless solution”.

What about the Observations (50% w/v HPCD reconstitution (2 mL aliquot), 1N NaOH 15 μL, pH 4.90, oritavancin 57.02 mg/mL) of the same compound?
The Observations was “Clear, colorless solution”.

And the Observations (50% w/v HPCD reconstitution (2 mL aliquot), 1N NaOH 20 μL, pH 5.19, oritavancin 56.98 mg/mL)?
Its Observations is “Clear, colorless solution”.

And the Observations (50% w/v HPCD reconstitution (2 mL aliquot), 1N NaOH 25 μL, pH 5.39, oritavancin 56.94 mg/mL)?
The Observations was “Clear, colorless solution”.

And the Observations (50% w/v HPCD reconstitution (2 mL aliquot), 1N NaOH 30 μL, pH 5.65, oritavancin 56.90 mg/mL)?
The Observations was “Clear, colorless solution”.

And the Observations (50% w/v HPCD reconstitution (2 mL aliquot), 1N NaOH 35 μL, pH 5.81, oritavancin 56.86 mg/mL)?
Its Observations is “Clear, colorless solution”.

And the Observations (50% w/v HPCD reconstitution (2 mL aliquot), 1N NaOH 40 μL, pH 6.10, oritavancin 56.82 mg/mL)?
Its Observations is “Clear, colorless solution”.

What about the Observations (50% w/v HPCD reconstitution (2 mL aliquot), 1N NaOH 45 μL, pH 6.17, oritavancin 56.78 mg/mL) of the same compound?
The Observations was “Clear, colorless solution”.

What about the Observations (50% w/v HPCD reconstitution (2 mL aliquot), 1N NaOH 50 μL, pH 6.33, oritavancin 56.74 mg/mL) of the same compound?
The Observations was “Clear, colorless solution”.

And the Observations (50% w/v HPCD reconstitution (3 mL aliquot), 1N NaOH 0 μL, pH 4.05, oritavancin 57.14 mg/mL)?
Its Observations is “Clear, colorless solution”.

What about the Observations (50% w/v HPCD reconstitution (3 mL aliquot), 1N NaOH 5 μL, pH 4.28, oritavancin 57.04 mg/mL) of the same compound?
The Observations was “Clear, colorless solution”.

What about the Observations (50% w/v HPCD reconstitution (3 mL aliquot), 1N NaOH 10 μL, pH 4.44, oritavancin 56.94 mg/mL) of the same compound?
The Observations was “Clear, colorless solution”.

And the Observations (50% w/v HPCD reconstitution (3 mL aliquot), 1N NaOH 15 μL, pH 4.68, oritavancin 56.84 mg/mL)?
Its Observations is “Clear, colorless solution”.

What about the Observations (50% w/v HPCD reconstitution (3 mL aliquot), 1N NaOH 20 μL, pH 4.93, oritavancin 56.74 mg/mL) of the same compound?
Its Observations is “Clear, colorless solution”.

And the Observations (50% w/v HPCD reconstitution (3 mL aliquot), 1N NaOH 25 μL, pH 5.11, oritavancin 56.64 mg/mL)?
The Observations was “Clear, colorless solution”.

What about the Observations (50% w/v HPCD reconstitution (3 mL aliquot), 1N NaOH 30 μL, pH 5.23, oritavancin 56.54 mg/mL) of the same compound?
Its Observations is “Clear, colorless solution”.

And the Observations (50% w/v HPCD reconstitution (3 mL aliquot), 1N NaOH 35 μL, pH 5.36, oritavancin 56.44 mg/mL)?
The Observations was “Clear, colorless solution”.

What about the Observations (50% w/v HPCD reconstitution (3 mL aliquot), 1N NaOH 40 μL, pH 5.48, oritavancin 56.35 mg/mL) of the same compound?
The Observations was “Clear, colorless solution”.

And the Observations (50% w/v HPCD reconstitution (3 mL aliquot), 1N NaOH 45 μL, pH 5.77, oritavancin 56.24 mg/mL)?
Its Observations is “Clear, colorless solution”.

What about the Observations (50% w/v HPCD reconstitution (3 mL aliquot), 1N NaOH 50 μL, pH 5.82, oritavancin 56.14 mg/mL) of the same compound?
Its Observations is “Clear, colorless solution”.

And the Observations (50% w/v HPCD reconstitution (3 mL aliquot), 1N NaOH 55 μL, pH 5.85, oritavancin 56.03 mg/mL)?
Its Observations is “Clear, colorless solution”.

And the Observations (50% w/v HPCD reconstitution (3 mL aliquot), 1N NaOH 60 μL, pH 5.94, oritavancin 55.93 mg/mL)?
Its Observations is “Clear, colorless solution”.

And the Observations (50% w/v HPCD reconstitution (3 mL aliquot), 1N NaOH 65 μL, pH 6.05, oritavancin 55.83 mg/mL)?
Its Observations is “Clear, colorless solution”.

And the Observations (50% w/v HPCD reconstitution (3 mL aliquot), 1N NaOH 70 μL, pH 6.15, oritavancin 55.72 mg/mL)?
Its Observations is “Clear, colorless solution”.

What about the Observations (50% w/v HPCD reconstitution (3 mL aliquot), 1N NaOH 75 μL, pH 6.20, oritavancin 55.61 mg/mL) of the same compound?
The Observations was “Clear, colorless solution”.

What about the Observations (50% w/v HPCD reconstitution (3 mL aliquot), 1N NaOH 80 μL, pH 6.23, oritavancin 55.50 mg/mL) of the same compound?
Its Observations is “Clear, colorless solution”.

And the Observations (50% w/v HPCD reconstitution (3 mL aliquot), 1N NaOH 85 μL, pH 6.34, oritavancin 55.39 mg/mL)?
The Observations was “Clear, colorless solution”.

What about the Observations (50% w/v HPCD reconstitution (3 mL aliquot), 1N NaOH 90 μL, pH 6.32, oritavancin 55.28 mg/mL) of the same compound?
The Observations was “Clear, colorless solution”.

What about the Observations (50% w/v HPCD reconstitution (3 mL aliquot), 1N NaOH 95 μL, pH 6.38, oritavancin 55.17 mg/mL) of the same compound?
The Observations was “Clear, colorless solution”.

What about the Observations (50% w/v HPCD reconstitution (3 mL aliquot), 1N NaOH 100 μL, pH 6.46, oritavancin 55.07 mg/mL) of the same compound?
The Observations was “Clear, colorless solution”.

What about the Observations (50% w/v HPCD reconstitution (3 mL aliquot), 1N NaOH 105 μL, pH 6.57, oritavancin 54.95 mg/mL) of the same compound?
Its Observations is “Clear, colorless solution”.

What about the Observations (50% w/v HPCD reconstitution (3 mL aliquot), 1N NaOH 110 μL, pH 6.59, oritavancin 54.84 mg/mL) of the same compound?
Its Observations is “Clear, colorless solution”.

And the Observations (50% w/v HPCD reconstitution (3 mL aliquot), 1N NaOH 115 μL, pH 6.71, oritavancin 54.73 mg/mL)?
Its Observations is “Clear, colorless solution”.

And the Observations (50% w/v HPCD reconstitution (3 mL aliquot), 1N NaOH 120 μL, pH 6.70, oritavancin 54.61 mg/mL)?
The Observations was “Clear, colorless solution”.

And the Observations (50% w/v HPCD reconstitution (3 mL aliquot), 1N NaOH 125 μL, pH 6.75, oritavancin 54.50 mg/mL)?
Its Observations is “Clear, colorless solution”.

And the Observations (50% w/v HPCD reconstitution (3 mL aliquot), 1N NaOH 130 μL, pH 6.90, oritavancin 54.38 mg/mL)?
The Observations was “Clear, colorless solution”.

And the Observations (50% w/v HPCD reconstitution (3 mL aliquot), 1N NaOH 135 μL, pH 6.90, oritavancin 54.26 mg/mL)?
Its Observations is “Clear, colorless solution”.

And the Observations (50% w/v HPCD reconstitution (3 mL aliquot), 1N NaOH 140 μL, pH 6.96, oritavancin 54.14 mg/mL)?
Its Observations is “Clear, colorless solution”.
